Tests used:
[1] = test system: MCF-7 (breast cancer); assay: MTT cytotoxicity assay, MCF-7 cells; type: cell-based, human; details: Homo sapiens; for inhibition at 1 µM / inhibition at 2 µM / inhibition at 4 µM / inhibition at 16 µM / inhibition at 32 µM / inhibition at 64 µM / inhibition at 128 µM / inhibition at 8 µM: MCF7, 72 h, three replicates, read-out: cell inhibition; for inhibition at 1 µM: MCF-7, c 1.00 μM; for inhibition at 2 µM: MCF-7, c 2.00 μM; for inhibition at 4 µM: MCF-7, c 4.00 μM; for inhibition at 16 µM: MCF-7, c 16.00 μM; for inhibition at 32 µM: MCF-7, c 32.00 μM; for inhibition at 64 µM: MCF-7, c 64.00 μM; for inhibition at 128 µM: MCF-7, c 128.00 μM; for IC50: MCF7, MTT, 72 h, mean ± SD (n = 3); for inhibition at 8 µM: MCF-7, c 8.00 μM
Procedure: (§1) The cytotoxicity of all compounds against three human tumor cell lines, SF-268 (CNS cancer), MCF-7 (breast cancer), and HepG2 (hepatoma cancer), and normal cell line LX-2 was tested using the MTT assay. […] All cells were seeded into 96-well plates at 5 × 10^4 cells/ml and incubated at 37°C under a 5% CO2 atmosphere for 24 h. Then, the tested compounds were added. After 72 h, MTT solution was added into each well, which was further incubated. The cell-free supernatant was removed and formazan crystals were subsequently dissolved in DMSO. Optical density (OD) was recorded at 490 nm on a microplate reader to calculate the IC50 values.

[2] = test system: SF-268 (CNS cancer); assay: MTT cytotoxicity assay, SF-268 cells; type: cell-based, human; details: Homo sapiens; for inhibition at 1 µM / inhibition at 2 µM / inhibition at 4 µM / inhibition at 8 µM / inhibition at 16 µM / inhibition at 32 µM / inhibition at 64 µM / inhibition at 128 µM: SF-268, 72 h, SF268 cells, triplicate values, read-out: cell inhibition; for inhibition at 1 µM: c 1.00 μM; for inhibition at 2 µM: c 2.00 μM; for inhibition at 4 µM: c 4.00 μM; for inhibition at 8 µM: c 8.00 μM; for inhibition at 16 µM: c 16.00 μM; for inhibition at 32 µM: c 32.00 μM; for inhibition at 64 µM: c 64.00 μM; for inhibition at 128 µM: c 128.00 μM; for IC50: SF-268, MTT, 72 h, mean ± SD (n = 3), read-out: IC50 SF268
Procedure: (§2) The cytotoxicity of all compounds against three human tumor cell lines, SF-268 (CNS cancer), MCF-7 (breast cancer), and HepG2 (hepatoma cancer), and normal cell line LX-2 was tested using the MTT assay. Adriamycin was used as a positive control. All cells were seeded into 96-well plates at 5 × 10^4 cells/ml and incubated at 37°C under a 5% CO2 atmosphere for 24 h. Then, the tested compounds were added. After 72 h, MTT solution was added into each well, which was further incubated. The cell-free supernatant was removed and formazan crystals were subsequently dissolved in DMSO. Optical density (OD) was recorded at 490 nm on a microplate reader to calculate the IC50 values.

[3] = test system: HepG2 (hepatoma cancer); assay: MTT cytotoxicity assay, HepG2 cells; type: cell-based, human; details: Homo sapiens; for inhibition at 1 µM / inhibition at 2 µM / inhibition at 4 µM / inhibition at 8 µM / inhibition at 16 µM / inhibition at 32 µM / inhibition at 64 µM / inhibition at 128 µM: HepG2, 72 h, three replicates, read-out: cell inhibition; for inhibition at 1 µM: HepG2, c 1.00 μM; for inhibition at 2 µM: HepG2, c 2.00 μM; for inhibition at 4 µM: HepG2, c 4.00 μM; for inhibition at 8 µM: HepG2, c 8.00 μM; for inhibition at 16 µM: HepG2, c 16.00 μM; for inhibition at 32 µM: HepG2, c 32.00 μM; for inhibition at 64 µM: HepG2, c 64.00 μM; for inhibition at 128 µM: HepG2, c 128.00 μM; for IC50: HepG2, MTT, 72 h, mean ± SD (n = 3)
Procedure: as §2

[4] = test system: normal cell line LX-2; assay: MTT cytotoxicity assay, normal cell line LX-2; type: cell-based; details: 72 h; for inhibition at 1 µM: LX-2, c 1.00 μM; for inhibition at 1 µM / inhibition at 2 µM / inhibition at 4 µM / inhibition at 8 µM / inhibition at 16 µM / inhibition at 32 µM / inhibition at 64 µM / inhibition at 128 µM: three replicates; for inhibition at 2 µM: LX-2, c 2.00 μM; for inhibition at 4 µM: LX-2, c 4.00 μM; for inhibition at 8 µM: LX-2, c 8.00 μM; for inhibition at 16 µM: LX-2, c 16.00 μM; for inhibition at 32 µM: LX-2, c 32.00 μM; for inhibition at 64 µM: LX-2, c 64.00 μM; for inhibition at 128 µM: LX-2, c 128.00 μM; for IC50: MTT, mean ± SD (n = 3)
Procedure: as §1

| Structure (SMILES) | inhibition at 1 µM [1] | inhibition at 2 µM [1] | inhibition at 4 µM [1] | inhibition at 16 µM [1] | inhibition at 32 µM [1] | inhibition at 64 µM [1] | inhibition at 128 µM [1] | IC50 [1] | inhibition at 1 µM [2] | inhibition at 2 µM [2] | inhibition at 4 µM [2] | inhibition at 8 µM [2] | inhibition at 16 µM [2] | inhibition at 32 µM [2] | inhibition at 64 µM [2] | inhibition at 128 µM [2] | IC50 [2] | inhibition at 1 µM [3] | inhibition at 2 µM [3] | inhibition at 4 µM [3] | also measured |
| --- | --- | --- | --- | --- | --- | --- | --- | --- | --- | --- | --- | --- | --- | --- | --- | --- | --- | --- | --- | --- | --- |
| COc1cccc2c1C(=O)c1c(O)c3c(c(O)c1C2=O)C[C@@](O)(C(=O)CO)C[C@@H]3O[C@H]1C[C@H](N)[C@H](O)[C@H](C)O1 [Adriamycin, reference compound] | 27.9% | 51.4% | 66.5% | 97% | 97.4% | 97.1% | 97.4% | 1.5 ± 0.01 µM | 35.4% | 51.1% | 69.9% | 76% | 90.9% | 96.4% | 96.5% | 95.1% | 1.9 ± 0.03 µM | 33.1% | 48.5% | 66.2% | inhibition at 8 µM [3]: 74.1%; inhibition at 16 µM [3]: 89.4%; inhibition at 32 µM [3]: 86.2%; inhibition at 64 µM [3]: 96.3%; inhibition at 128 µM [3]: 95.3%; IC50 [3]: 2.2 ± 0.03 µM; inhibition at 1 µM [4]: 8.56%; inhibition at 2 µM [4]: 9.36%; inhibition at 4 µM [4]: 14.5%; inhibition at 8 µM [4]: 26.4%; inhibition at 16 µM [4]: 43.4%; inhibition at 32 µM [4]: 56.2%; inhibition at 64 µM [4]: 77.2%; inhibition at 128 µM [4]: 98.1%; IC50 [4]: > 40 µM |
| CC(=O)OC(C)C(C)=CC=CC1(C)OC(=O)C(C)C1O (centres unmarked) [compound 1, diaportone A] | 7.76% | 12.6% | 17.8% | 29.1% | 32.5% | 78.1% | 83.4% | > 40 µM | 2.75% | 3.91% | 3.45% | 6.33% | 15.7% | 22.2% | 37.9% | 69.3% | > 40 µM | 8.32% | 14.4% | 21.3% | inhibition at 8 µM [1]: 23.1%; inhibition at 8 µM [3]: 23.1%; inhibition at 16 µM [3]: 30.1%; inhibition at 32 µM [3]: 46.5%; inhibition at 64 µM [3]: 71.3%; inhibition at 128 µM [3]: 80.3%; IC50 [3]: > 40 µM; inhibition at 1 µM [4]: 3.47%; inhibition at 2 µM [4]: 5.08%; inhibition at 4 µM [4]: 9.11%; inhibition at 8 µM [4]: 8.98%; inhibition at 16 µM [4]: 15.6%; inhibition at 32 µM [4]: 31.7%; inhibition at 64 µM [4]: 45.1%; inhibition at 128 µM [4]: 70.3%; IC50 [4]: > 40 µM |
| C/C(=C\C=C\[C@]1(C)OC(=O)[C@@H](C)[C@@H]1O)[C@H](C)O [compound 2, colletolides A] | 1.03% | 2.87% | 2.35% | 17.4% | 22.6% | 53.1% | 70.1% | > 40 µM | 3.14% | 4.41% | 8.45% | 9.12% | 19.4% | 27.1% | 51.5% | 70.1% | > 40 µM | 2.57% | 3.48% | 7.34% | inhibition at 8 µM [1]: 12.7%; inhibition at 8 µM [3]: 14.6%; inhibition at 16 µM [3]: 19.4%; inhibition at 32 µM [3]: 27.5%; inhibition at 64 µM [3]: 60.5%; inhibition at 128 µM [3]: 75%; IC50 [3]: > 40 µM; inhibition at 1 µM [4]: 4.42%; inhibition at 2 µM [4]: 5.31%; inhibition at 4 µM [4]: 11.3%; inhibition at 8 µM [4]: 19.3%; inhibition at 16 µM [4]: 24.4%; inhibition at 32 µM [4]: 40.4%; inhibition at 64 µM [4]: 79.4%; inhibition at 128 µM [4]: 80.5%; IC50 [4]: > 40 µM |
| CCCC(O)C1=C(C)C(=O)C(C)C1 (centres unmarked) [compound 3, diaportone B] | 8.01% | 13.3% | 14.8% | 30.5% | 41.4% | 62.7% | 76.1% | > 40 µM | 6.32% | 12% | 19.4% | 21.4% | 27.3% | 28.5% | 34.1% | 59.4% | > 40 µM | 8.12% | 14.3% | 19.2% | inhibition at 8 µM [1]: 21.4%; inhibition at 8 µM [3]: 25.3%; inhibition at 16 µM [3]: 30.6%; inhibition at 32 µM [3]: 42.1%; inhibition at 64 µM [3]: 54.8%; inhibition at 128 µM [3]: 75.3%; IC50 [3]: > 40 µM; inhibition at 1 µM [4]: 6.32%; inhibition at 2 µM [4]: 5.31%; inhibition at 4 µM [4]: 11.4%; inhibition at 8 µM [4]: 20.6%; inhibition at 16 µM [4]: 28.3%; inhibition at 32 µM [4]: 34.8%; inhibition at 64 µM [4]: 50.5%; inhibition at 128 µM [4]: 70.2%; IC50 [4]: > 40 µM |
| CCCC(O)C1=C(C)C(=O)CC1C (centres unmarked) [compound 4, phomotenone] | 3.45% | 7.63% | 13.1% | 27.3% | 36.1% | 50.6% | 72.2% | > 40 µM | 5.57% | 8.31% | 7.46% | 13.1% | 23.8% | 46.7% | 74.3% | 82.1% | > 40 µM | 6.5% | 7.63% | 14.3% | inhibition at 8 µM [1]: 20.4%; inhibition at 8 µM [3]: 20.2%; inhibition at 16 µM [3]: 31.4%; inhibition at 32 µM [3]: 37.3%; inhibition at 64 µM [3]: 54.7%; inhibition at 128 µM [3]: 73%; IC50 [3]: > 40 µM; inhibition at 1 µM [4]: 7.34%; inhibition at 2 µM [4]: 9.3%; inhibition at 4 µM [4]: 12%; inhibition at 8 µM [4]: 18.1%; inhibition at 16 µM [4]: 24.6%; inhibition at 32 µM [4]: 41.1%; inhibition at 64 µM [4]: 70%; inhibition at 128 µM [4]: 87.1%; IC50 [4]: > 40 µM |

— article PMC8640094, “Diaportones A–C: Three New Metabolites From Endophytic Fungus Diaporthe foeniculina BZM-15” (Frontiers in Chemistry, 2021)
